Measurements published in US6004933A, “Cysteine protease inhibitors” (Cortech Inc., priority 1998, dated 1999).
Read-outs that look alike come from different tables or passages of the source.

Columns and labels:
ICE (Caspase 1) [1] = target: T1, ICE (Caspase 1) (Homo sapiens, UniProt P29466); test: Human whole blood assay: IL-1β release after LPS stimulation (assay for ICE inhibition); assay type: cell-based; settings: LPS 10 or 100 ug/ml, 4 hr, ELISA, read-out: IC50 of reduction of IL1β release in whole blood assay
T1 construct: endogenous in cells; host or cells: THP-1
T1 sequence (P29466 120-297 limits assumed): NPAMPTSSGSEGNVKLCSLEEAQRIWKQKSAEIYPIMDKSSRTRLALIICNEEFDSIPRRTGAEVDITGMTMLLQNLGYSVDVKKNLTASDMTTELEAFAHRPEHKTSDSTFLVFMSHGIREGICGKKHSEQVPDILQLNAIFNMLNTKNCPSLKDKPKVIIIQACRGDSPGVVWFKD
T1 sequence (P29466 317-404 limits assumed): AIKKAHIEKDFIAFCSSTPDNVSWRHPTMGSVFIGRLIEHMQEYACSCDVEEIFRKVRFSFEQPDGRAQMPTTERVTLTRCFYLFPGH
Description: (§1) To examine the ability of the caspase family inhibitors, CQ-0010 and CQ-0011, to inhibit human IL-1β production, two different assays were employed. In the first, the human monocytic cell line, THP-1, was stimulated with E. coli lipopolysaccharide (LPS serotype 0127-88; Sigma Chemical Co., St. Louis, Mo.) in the presence and absence of the inhibitors. This cell line synthesizes and secretes IL-1β and TNFα as well as other cytokines upon LPS stimulation. The second assay used freshly-isolated human whole blood similarly stimulated with LPS.
Heparinized whole blood (19.7 U heparin per ml) from healthy volunteers was collected and dispensed into 12×75 mm polystyrene tubes (0.25 ml per tube). The inhibitors, CQ-0010, CQ-0011 and Ac-YVAD-CHO were dissolved in DMSO, then diluted and added to the tubes in 0.25 ml and preincubated with the blood for 15 min at 37° C. LPS was then added to a final concentration of 10 or 100 ug/ml.
The tubes were loosely-capped and incubated in a water bath for 4 hr at 37° C. after which they were immersed briefly in an ice-water bath. Supernatants were harvested by centrifngation and stored at -70° C. The presence of TNFα and IL-1β was detected by commercially-available ELISA kits.

granzyme B = granzyme B (Homo sapiens, UniProt P10144); test: Granzyme B inhibition, photometric, Succ-AAPD-pNA; assay type: biochemical; settings: 20 μM Succ-AAPD-pNA, 1 mM DTT
granzyme B, sequence (P10144 21-247, species assumed): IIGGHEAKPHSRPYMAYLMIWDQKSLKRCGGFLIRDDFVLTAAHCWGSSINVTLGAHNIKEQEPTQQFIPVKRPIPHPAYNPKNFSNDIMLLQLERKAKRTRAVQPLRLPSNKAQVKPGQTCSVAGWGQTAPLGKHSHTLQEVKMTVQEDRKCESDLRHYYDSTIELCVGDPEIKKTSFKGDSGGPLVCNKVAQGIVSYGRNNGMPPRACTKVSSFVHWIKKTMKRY
Protocol: (§2) Inhibition constants were measured photometrically for YAMA (caspase 3), Lap3 (caspase 7), FLICE (caspase 8), Mch2 (caspase 6) and granzyme B. The buffer used for all enzymes consisted of 50 mM Hepes, 100 mM sodium chloride, 10% (v/v) sucrose, 0.1% (v/v) CHAPS and 10 mM dithiothreitol (DTT). In the case of granzyme B, only 1 mM DTT was used.
(§3) Enzymes were incubated at 37° C. for 10 minutes in 100 μL well plates and synthetic substrate and inhibitor were added simultaneously. Final substrate concentration was 20 μM in all cases. The synthetic substrate Ac-DEVD-pNA was used for all caspases and Succ-AAPD-pNA was used for granzyme B. The appearance of product was monitored over 10 minutes at 410 nm using a Spectromax 340 and IC50 curves were calculated from the initial slopes at varying inhibitor concentrations and inhibition constants were calculated.

ICE (Caspase 1) [2] = target: T1, ICE (Caspase 1); test: THP-1 assay: IL-1β release after LPS stimulation (assay for ICE inhibition); assay type: cell-based; settings: for IC50: LPS 1 ug/ml, 4 hr, ELISA, read-out: IC50 of reduction of IL1β release from THP1 cell line
Description: as §1
(§4) Two×10^6 THP-1 cells were added to 24 well plates in 1 ml RPMI supplemented with 1% FCS, glutamine and 5×10^-5 M mercaptoethanol. Two-fold serial dilutions of the inhibitors, CQ-0010, CQ-0011 and the commmercially available Ac-YVAD-CHO (Biomol Research Laboratories Inc., Plymouth Meeting, Pa.), were preincubated with the cells for 15 min at 37° C. LPS was then added to a final concentration of 1 ug/ml and the plates incubated for 4 hr at 37° C. All incubations were carried out in a humidified incubator with 5% CO2 in air.
(§5) Supernatants were harvested after 4 hr and assayed by ELISA for the presence of TNFα and IL-1β using commercially available kits (PerSeptive Biosystems, Framingham, Mass. and R&D Systems, Minneapolis, Minn., respectively).

TNFα = test: THP-1 assay: TNFα levels after LPS stimulation; assay type: cell-based, human; settings: THP-1 cells, results not shown
Description: as §1, §4, §5

Mch2 (Caspase 6) = target: T2, Mch2 (Caspase 6) (Homo sapiens, UniProt P55212); test: Caspase inhibition, photometric, Ac-DEVD-pNA; assay type: biochemical; settings: 20 μM Ac-DEVD-pNA, 37° C.
T2 sequence (P55212 24-179 limits assumed): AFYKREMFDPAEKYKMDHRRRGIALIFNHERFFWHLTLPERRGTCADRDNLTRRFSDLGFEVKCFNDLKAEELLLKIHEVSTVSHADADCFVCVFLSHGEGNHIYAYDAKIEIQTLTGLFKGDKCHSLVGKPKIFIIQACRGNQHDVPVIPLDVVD
T2 sequence (P55212 194-293 limits assumed): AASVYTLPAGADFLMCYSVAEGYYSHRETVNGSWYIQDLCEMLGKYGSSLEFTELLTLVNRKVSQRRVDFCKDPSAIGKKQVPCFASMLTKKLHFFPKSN
Protocol: as §2, §3

FLICE (Mch5, Caspase 8) = FLICE (Mch5, Caspase 8) (Homo sapiens, UniProt Q14790); test: Caspase inhibition, photometric, Ac-DEVD-pNA; assay type: biochemical
FLICE (Mch5, Caspase 8), sequence (Q14790 217-374 limits assumed, species assumed): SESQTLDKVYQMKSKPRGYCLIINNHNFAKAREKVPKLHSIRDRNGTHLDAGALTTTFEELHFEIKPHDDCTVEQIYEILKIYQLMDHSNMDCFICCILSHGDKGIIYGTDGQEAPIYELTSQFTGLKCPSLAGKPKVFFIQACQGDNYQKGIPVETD
FLICE (Mch5, Caspase 8), sequence (Q14790 385-479 limits assumed, species assumed): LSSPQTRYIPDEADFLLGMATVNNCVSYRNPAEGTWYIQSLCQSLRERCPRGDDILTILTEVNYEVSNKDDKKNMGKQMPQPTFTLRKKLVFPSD
Protocol: as §2, §3

Lap3 (Mch3, Caspase 7) = target: T3, Lap3 (Mch3, Caspase 7) (Homo sapiens, UniProt P55210); test: Caspase inhibition, photometric, Ac-DEVD-pNA; assay type: biochemical; settings: 20 μM Ac-DEVD-pNA, 37° C.
T3 sequence (P55210 24-198 limits assumed): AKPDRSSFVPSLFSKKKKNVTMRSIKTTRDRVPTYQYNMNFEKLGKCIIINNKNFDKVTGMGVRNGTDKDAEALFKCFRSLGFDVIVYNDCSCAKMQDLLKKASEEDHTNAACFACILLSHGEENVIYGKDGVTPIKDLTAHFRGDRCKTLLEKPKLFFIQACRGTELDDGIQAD
T3 sequence (P55210 207-303 limits assumed): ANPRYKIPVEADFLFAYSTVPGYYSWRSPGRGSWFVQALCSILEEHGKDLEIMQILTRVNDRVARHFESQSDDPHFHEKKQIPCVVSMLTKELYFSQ
Protocol: as §2, §3

YAMA (CPP32, Caspase 3) = target: T4, YAMA (CPP32, Caspase 3) (Homo sapiens, UniProt P42574); test: Caspase inhibition, photometric, Ac-DEVD-pNA; assay type: biochemical; settings: 20 μM Ac-DEVD-pNA, 37° C.
T4 sequence (P42574 29-175 limits assumed): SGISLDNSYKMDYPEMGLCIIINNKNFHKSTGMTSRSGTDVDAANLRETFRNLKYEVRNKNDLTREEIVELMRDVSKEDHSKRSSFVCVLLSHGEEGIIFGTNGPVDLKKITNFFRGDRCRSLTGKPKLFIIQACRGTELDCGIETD
T4 sequence (P42574 176-277 limits assumed): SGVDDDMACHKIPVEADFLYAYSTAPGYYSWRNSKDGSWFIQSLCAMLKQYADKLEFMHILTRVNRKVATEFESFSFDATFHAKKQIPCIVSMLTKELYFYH
Protocol: as §2, §3

[3] = 20 μM Ac-DEVD-pNA, 37° C., read-out: Ki, FLICE (Mch5, Caspase 8)

inhibition of IL-1β production (ICE (Caspase 1) [2]; at 5 μM, THP-1 cells (FIG. 1)) | Ki (FLICE (Mch5, Caspase 8); read-out: Ki, FLICE) | SMILES | IC50 (ICE (Caspase 1) [1]) | Ki, Granzyme (granzyme B) | IC50 (ICE (Caspase 1) [2]) | effect on levels of TNFα produced (TNFα) | Ki (Mch2 (Caspase 6)) | Ki (FLICE (Mch5, Caspase 8); [3]) | Ki, Lap3 (Mch3, Caspase 7) (Lap3 (Mch3, Caspase 7)) | Ki (YAMA (CPP32, Caspase 3))
almost completely inhibiting | ≤ 20 nM | CC(=O)N[C@@H](Cc1ccc(O)cc1)C(=O)N[C@H](C(=O)N[C@@H](C)C(=O)NC(CC(=O)O)C(=O)c1nnc(-c2ccccc2)o1)C(C)C (stereo partly drawn) [CQ-0010, Acetyl-L-tyrosinyl-L-valyl-N-[1-[2-[(5-phenyl)-1,3,4-oxadiazolyl]carbonyl]-2-carboxy-ethyl]-L-alanine amide] | 300 to 500 nM | Not Active | 300 nM | no dose-dependent effect | 33 µM | ≤ 20 nM | Not Active | 3.3 µM
 |  | CC(=O)N[C@@H](Cc1ccc(O)cc1)C(=O)N[C@H](C(=O)N[C@@H](C)C(=O)N[C@H](C=O)CC(=O)O)C(C)C [Ac-YVAD-CHO, reference compound] | 300 to 500 nM | Not Active | 300 nM |  | 100 µM | 3700 nM | Not Active | 20 µM
